Assay results as given in patent US9295667B2, “Pharmaceutical composition for preventing or treating diabetes or fatty liver containing a CYP4A inhibitor as an active ingredient” (Korea Basic Science Institute, priority 2011, dated 2016).

Assays:
db/db mice [1] = test: Intraperitoneal glucose tolerance test (IPGTT) in db/db mice; type: in vivo; details: 5 mg/kg/day intraperitoneal, 2 weeks, 1 g/kg glucose
Experimental: (§1) Male C57BL/6J and C57BL/KsJ-db/db mice were purchased from Japan SLC. HET0016 (5 mg/kg/day) and clofibrate (400 mg/kg/day) were injected intraperitoneally into eight (8)-week-old mice for two (2) weeks. Control littermate mice for HET0016 were treated with DMSO, while control littermate mice for clofibrate were treated with corn oil. Intraperitoneal glucose tolerance test (IPGTT) was performed after overnight fasting followed by intraperitoneal injection of lg/kg of glucose dissolved in PBS. The concentrations of blood glucose were measured using a One Touch Ultra glucometer (LifeScan, Inc.) before (0 min) and at 15, 30, 60, 90 and 120 min. after glucose injection. Livers isolated from 10-week-old mice were fixed in 10% neutral buffered formalin solution (Sigma), and paraffin sections were stained with hematoxylin-eosin.

db/db mice [2] = test: Level of blood glucose following 6 hours' fasting in db/db mice; type: in vivo; details: 5 mg/kg/day intraperitoneal, 2 weeks
Experimental: as §1, with “Intraperitoneal glucose tolerance test (IPGTT) was performed after overnight fasting followed by intraperitoneal injection of lg/kg of glucose dissolved in PBS.” left out

db/db mice [3] = test: Serum insulin ELISA in db/db mice; type: in vivo; details: 5 mg/kg/day intraperitoneal, 2 weeks
Experimental: (§2) While the mice were sacrificed, their blood was obtained with their hearts being punctured. The concentration of serum insulin was determined by using a commercial mouse serum insulin ELISA kit (Shibayagi Co., Ltd.) according to the manufacturer's instructions. Lipid peroxidation was measured by using OxiSelect™ TBARS Assay Kit (Cell Biolabs, Inc.) to quantify malondialdehyde (MDA), a natural by-product of lipid peroxidation in the liver homogenates. The level of triglyceride in the mice livers was measured by using Triglyceride Quantification Kit (Abcam).

db/db mice [4] = test: Liver tissue sections, hematoxylin-eosin staining, db/db mice; type: in vivo; details: 5 mg/kg/day intraperitoneal, 2 weeks
Experimental: as §1

db/db mice [5] = test: TBARS assay of MDA formation (lipid peroxidation) in liver of db/db mice; type: in vivo; details: 5 mg/kg/day intraperitoneal, 2 weeks
Experimental: as §2

[6] = system: ER stress markers (PERK, phospho-eIF2α, CHOP, phospho-JNK); test: Western blotting of ER stress markers in liver tissues of db/db mice; type: in vivo; details: 5 mg/kg/day intraperitoneal, 2 weeks
Experimental: as §1
Liver microsomes were prepared from fresh mice livers by applying a slight modification to the above described methods. Separated livers were thoroughly sprinkled with 1.15% KCl solution. Subsequently, the livers were homogenized with 4 times volume of a homogenizing buffer (0.1 M Tris-HCl, pH 7.4; 0.1 M KCl; […], pH 7.5; 25 μM butylated hydroxyltoluene). In order to remove un-destructed cells, nuclei and mitochondria, the obtained homogenate was centrifuged in a low-powered centrifugation (1,000× g, 4° C. for 15 min.) The obtained supernatant was then centrifuged in a higher powered centrifugation (100,000× g, 4° C. for 60 min.), resulting in the precipitation of microsomes. Pellets of compactly packed microsomes were re-suspended in 3 ml of an ice-cooled pyrophosphate buffer (0.1 M potassium pyrophosphate; 1 mM EDTA, pH 7.5; 20 μM butylated hydroxyltoluene) by using a homogenizer, followed by further centrifugation at 100,000× g, 4° C. for 60 min. The washed microsome pellets were finally suspended in 2 ml of an ice-cooled microsome buffer (10 mM Tris-HCl, pH 7.4; 1 mM EDTA, pH 7.5; 20% glycerol).
(§3) Proteins were denatured at 95° C., and separated by SDS-PAGE, followed by electroblotting on a membrane made of nitrocellulose (NC) or polyvinylidene difluoride (PVDF). After blocking in TBST (Tris-buffered Saline, 0.1% Tween-20) containing 5% non-fat milk (skim milk) or 5% bovine serum albumin (BSA), the membrane was incubated with labeled primary antibodies. Subsequently, the membrane was washed with TBST and further incubated with secondary antibodies coupled with horseradish peroxides. Protein blots were detected by using ECL kit and visualized by a luminescence imaging analyzer of LAS-4000 mini system and software (FujiFilm). […]

[7] = system: insulin receptor (IR) and Akt; test: In vivo insulin signaling (phosphorylation of IR and Akt) in liver of db/db mice; details: 5 mg/kg/day intraperitoneal, 2 weeks
Experimental: as §1
as §3, with “Subsequently, the membrane was washed with TBST and further incubated with secondary antibodies coupled with horseradish peroxides.” left out

[8] = system: cleaved Caspase-3 and -9, Bax and Bcl-2; test: Apoptosis markers by Western blotting in liver of db/db mice; type: in vivo; details: 5 mg/kg/day intraperitoneal, 2 weeks
Experimental: as §1
(§4) Proteins were denatured at 95° C., and separated by SDS-PAGE, followed by electroblotting on a membrane made of nitrocellulose (NC) or polyvinylidene difluoride (PVDF). After blocking in TBST (Tris-buffered Saline, 0.1% Tween-20) containing 5% non-fat milk (skim milk) or 5% bovine serum albumin (BSA), the membrane was incubated with labeled primary antibodies. Subsequently, the membrane was washed with TBST and further incubated with secondary antibodies coupled with horseradish peroxides. Protein blots were detected by using ECL kit and visualized by a luminescence imaging analyzer of LAS-4000 mini system and software (FujiFilm). Following antibodies were utilized: mouse anti-β-actin (sc-47778), rabbit anti-CYP4A (sc-98988, Santa Cruz Biotechnology), mouse anti-ATF6 (IMG-273, Imgenex), mouse anti-eIF2α (ab5369), rabbit anti-phospho-eIF2α Ser51 (ab32157), rabbit anti-IRE1 (ab37073, Abcam), rabbit anti-PERK(#3192), rabbit anti-phospho-PERK Thr980 (#3179), rabbit anti-BiP (#3177), mouse anti-CHOP (#2895), rabbit anti-SAPK/JNK (#9252), rabbit anti-phospho-SAPK/JNK […] (#9251), rabbit anti-Insulin receptor β (#3025), rabbit anti-phospho-Insulin receptor β Tyr1150/1151 (#3024), rabbit anti-Akt (#4691), rabbit anti-phospho-Akt Ser473 (#4060), rabbit anti-Bcl-2 (#2876), rabbit anti-Bax (#2772), rabbit anti-divided caspase-3 (#9664), rabbit anti-divided caspase-9 (#9509), rabbit anti-Bax (#2772, Cell Signaling Technology), rabbit anti-ERP72 (obtained from Dr. O. Y. Kwon, College of Medicine, Chungnam National University).

[9] = system: human hepatoma HepG2 cells; test: Tunicamycin-induced ER stress in HepG2 cells, Western blotting; type: cell-based; details: 4 μg/ml tunicamycin, combined treatment HET0016, 6 hours
Experimental: HepG2 cells were cultured in a Dulbecco's Modified Eagle Medium (DMEM, Gibco) Low Glucose supplemented with heat-inactivated 10% fetal bovine serum (FBS) and antibiotics at 37° C. in the presence of 5% moisturized CO2 and 95% air. The above cells were plated in a concentration of 3×10^4 cells/cm^2 and maintained in the cell culture medium for 24 hours prior to the following chemical processing. […] As a control, HepG2 cells were treated with DMSO.
as §4

C57BL/6J mice [10] = test: IPGTT in normal C57BL/6J mice; type: in vivo; details: normal wild type C57BL/6J mice, same doses as db/db mice (5 mg/kg/day intraperitoneal, 2 weeks)
Experimental: as §1

C57BL/6J mice [11] = test: Serum insulin ELISA in normal C57BL/6J mice; type: in vivo; details: normal wild type C57BL/6J mice, 5 mg/kg/day intraperitoneal, 2 weeks
Experimental: as §2

C57BL/6J mice [12] = test: Liver tissue sections, hematoxylin-eosin staining, C57BL/6J mice; type: in vivo; details: normal wild type C57BL/6J mice, 5 mg/kg/day intraperitoneal, 2 weeks
Experimental: as §1

C57BL/6J mice [13] = test: Liver triglyceride (TG) level in C57BL/6J mice; type: in vivo; details: normal wild type C57BL/6J mice, 5 mg/kg/day intraperitoneal, 2 weeks
Experimental: as §2

With CCCCc1ccc(N=CNO)c(C)c1 [HET0016, N-hydroxy-N′-(4-butyl-2-methylphenyl)-formamidine] the “insulin resistance (IPGTT)” value (db/db mice [1]) was “significantly improved”, the “level of blood glucose” value (db/db mice [2]) was “decreased” and the “level of serum insulin” value (db/db mice [3]) was “notably reduced”. The severe hepatic steatosis (db/db mice [4]) was “relieved”, the “increase of hepatic lipid peroxidation (MDA)” value (db/db mice [5]) was “notably reduced” and the “activation of JNK” value [6] was “markedly decreased”. The “activity of PERK downstream signaling (phosphorylation status of eIF2α, expression level of CHOP)” value [6] was “reduced”, the “expression of Cyp4a” value [6] was “not changed” and the “expression of PERK” value [6] was “reduced”. For the same molecule, the “phosphorylation of Akt” value [7] was “increased”, the “phosphorylation of insulin receptor (IR)” value [7] was “increased” and the “apoptosis of the diabetic liver tissues” value [8] was “inhibited”. For the same molecule, the “expression of Bax” value [8] was “suppressed”, the “expression of Bcl-2” value [8] was “increased” and the “level of active forms of caspase-3 and -9” value [8] was “reduced”. For the same molecule, the “expression of PERK” value [9] was “remarkably down-regulate”, the “expression of phospho-JNK” value [9] was “remarkably down-regulate” and the “expression of phospho-eIF2α” value [9] was “remarkably down-regulate”. The “insulin resistance (IPGTT)” value (C57BL/6J mice [10]) was “not altered”, the serum insulin level (C57BL/6J mice [11]) was “no differences” and the “hepatic physiology (liver sections)” value (C57BL/6J mice [12]) was “no differences”. The “hepatic steatosis (level of TG)” value (C57BL/6J mice [13]) was “no differences”.
